Laboratory results reported in US8143393B2, “Substituted 4-amino-pyrrolotriazine derivatives useful for treating hyper-proliferative disorders and diseases associated with angiogenesis” (Bayer HealthCare LLC, priority 2005, dated 2012).

Biological target: T1, FGFR-1 (Homo sapiens, UniProt P11362)
T1 construct: GST; made in house
Assay: FGFR-1 TR-FRET biochemical assay
Description: FGFR-1TR-FRET Biochemical Assay
The FGFR-1 Assay was performed on half well 96-well opaque plates (Costar 3915) in a LANCE format. LANCE is a homogenous time resolved fluormetry based application available through Perkin Elmer. For this assay, 50 uL reactions were set up using: 0.6 uM ATP (Sigma), 25 nM poly GT-biotin (CIS BIO International), 2 nM Eu-labelled phospho-Tyr Ab (PY20 PerkinElmer), 10 nM Streptavidin-APC (Perkin Elmer), 5 nM FGFR1-GST (generated by DRT, Bayer Healthcare), 1% DMSO, 50 mM HEPES pH 7.5, 10 mM MgCl2, 0.1 mM EDTA, 0.015% Brij, 0.1 mg/ml BSA, 0.1% B-mercaptoethanol. All reactions were initiated with the addition of enzyme and were left to incubate for one hour at room temperature. Time-resolved fluorescence was then read on a Perkin Elmer VictorV Multilabel counter. The reading protocol uses an excitation wavelength at 340 nm and emission reads at both 615 and 665 nm. Signal was calculated as a ratio: (Flourescence at 665 nm/Flourescence at 615 nM)*10000 for each well. The background control used for this assay is the signal produced with all assay components excluding ATP. For IC50 generation, compounds were added prior to the enzyme initiation. A 50-fold stock plate was made with compounds serially diluted 1:5 in a 50% DMSO/50% dH2O solution. A 1 μL addition of the stock to the assay wells gave final compound concentrations ranging from 10 μM-0.128 nM in 1% DMSO. The data were expressed as percent inhibition: % inhibition=100−((Signal with inhibitor−background)/(Signal without inhibitor−background))*100.

[1] = 0.6 uM ATP, 5 nM FGFR1-GST, bounds given in nM
[2] = upper bound of the bin 'greater than 100 nM but less than 1 μM' (lower bound in E1)

T1 sequence (P11362 22-822): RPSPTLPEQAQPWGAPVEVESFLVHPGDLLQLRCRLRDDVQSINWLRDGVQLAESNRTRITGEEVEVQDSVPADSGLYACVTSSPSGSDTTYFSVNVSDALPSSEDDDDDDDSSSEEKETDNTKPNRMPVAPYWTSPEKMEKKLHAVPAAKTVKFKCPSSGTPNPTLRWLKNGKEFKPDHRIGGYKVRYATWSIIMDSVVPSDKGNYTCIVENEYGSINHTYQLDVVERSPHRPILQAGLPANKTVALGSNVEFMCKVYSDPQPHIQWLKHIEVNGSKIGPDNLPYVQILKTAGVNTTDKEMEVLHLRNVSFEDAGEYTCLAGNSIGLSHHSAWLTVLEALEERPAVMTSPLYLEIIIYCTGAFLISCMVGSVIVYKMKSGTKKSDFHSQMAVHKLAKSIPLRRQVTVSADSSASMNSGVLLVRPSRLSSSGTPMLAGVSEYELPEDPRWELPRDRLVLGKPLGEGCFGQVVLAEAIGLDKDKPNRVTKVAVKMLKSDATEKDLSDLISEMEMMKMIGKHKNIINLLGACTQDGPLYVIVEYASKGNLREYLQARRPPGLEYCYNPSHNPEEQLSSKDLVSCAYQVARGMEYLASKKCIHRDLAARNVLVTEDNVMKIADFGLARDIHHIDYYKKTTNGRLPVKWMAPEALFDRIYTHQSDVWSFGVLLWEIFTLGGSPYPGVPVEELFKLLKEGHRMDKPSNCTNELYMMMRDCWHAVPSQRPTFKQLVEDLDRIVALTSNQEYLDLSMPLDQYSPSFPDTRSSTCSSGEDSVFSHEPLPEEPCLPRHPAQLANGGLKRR

Compound: CC(C)(C)c1cc(NC(=O)Nc2ccc(-c3cc(CN4CCOCC4)n4ncnc(N)c34)cc2)on1 [Example 2, N-{4-[4-amino-7-(morpholin-4-ylmethyl)pyrrolo[2,1-f][1,2,4]triazin-5-yl]phenyl}-N′-(3-tert-butylisoxazol-5-yl)urea]
- IC50 [1]: < 10 nM

Compound: Nc1ncnn2c(CN3CCOCC3)cc(-c3cc(F)c(NC(=O)Nc4cc(C(F)(F)F)ccc4F)c(F)c3)c12 [Example 7, N-{4-[4-amino-7-(morpholin-4-ylmethyl)-pyrrolo[2,1-f][1,2,4]triazin-5-yl]-2,6-difluorophenyl}-N′-[Z-fluoro-5-(trifluoro-methyl)phenyl]urea]
- IC50 [1]: > 100 nM
- IC50 [2]: < 1000 nM

Compound: Nc1ncnn2c(CN3CCOCC3)cc(-c3ccc(NC(=O)Nc4cc(C(F)(F)F)ccc4F)nc3)c12 [Example 9, N-{5-[4-amino-7-(morpholin-4-ylmethyl)pyrrolo[2,1-f][1,2,4]triazin-5-yl]pyridin-2-yl}-N′-[2-fluoro-5-(trifluoromethyl)phenyl]urea]
- IC50 [1]: < 10 nM

Compound: Nc1ncnn2c(CN3CCOCC3)cc(-c3ccc(NC(=O)Nc4cc(C(F)(F)F)ccn4)cc3F)c12 [Example 11, N-{4-[4-amino-7-(morpholin-4-ylmethyl)pyrrolo[2,1-f][1,2,4]triazin-5-yl]-3-fluorophenyl}-N′-[4-(trifluoromethyl)pyridin-2-yl]urea]
- IC50 [1]: < 10 nM

Compound: Nc1ncnn2c(CN3CCOCC3)cc(-c3ccc(NC(=O)Nc4cc(C(F)(F)F)ccn4)nc3)c12 [Example 12, N-{5-[4-amino-7-(morpholin-4-ylmethyl)pyrrolo[2,1-f][1,2,4]triazin-5-yl]pyridin-2-yl}-N′-[4-(trifluoromethyl)pyridin-2-yl]urea]
- IC50 [1]: < 10 nM

Compound: Nc1ncnn2c(CN3CCOCC3)cc(-c3cc(F)c(NC(=O)Nc4cc(C(F)(F)F)ccn4)c(F)c3)c12 [Example 14, N-{4-[4-amino-7-(morpholin-4-ylmethyl)pyrrolo[2,1-f][1,2,4]triazin-5-yl]-2,6-difluorophenyl}-N′-[4-(trifluoromethyl)pyridin-2-yl]urea]
- IC50 [1]: > 100 nM
- IC50 [2]: < 1000 nM

Compound: Nc1ncnn2c(CN3CCOCC3)cc(-c3ccc(NC(=O)Nc4ccc(F)c(C(F)(F)F)c4)nc3)c12 [Example 18, N-{5-[4-amino-7-(morpholin-4-ylmethyl)pyrrolo[2,1-f][1,2,4]triazin-5-yl]pyridin-2-yl}-N′-[4-fluoro-3-(trifluoromethyl)phenyl]urea]
- IC50 [1]: < 10 nM

Compound: Nc1ncnn2c(CN3CCOCC3)cc(-c3ccc(NC(=O)Nc4ccc(Cl)c(C(F)(F)F)c4)nc3)c12 [Example 19, N-{5-[4-amino-7-(morpholin-4-ylmethyl)pyrrolo[2,1-f][1,2,4]triazin-5-yl]pyridin-2-yl}-N′-[4-chloro-3-(trifluoromethyl)phenyl]urea]
- IC50 [1]: < 10 nM

Compound: Nc1ncnn2c(CN3CCOCC3)cc(-c3ccc(NC(=O)Nc4cccc(C(F)(F)F)c4)nc3)c12 [Example 20, N-{5-[4-amino-7-(morpholin-4-ylmethyl)pyrrolo[2,1-f][1,2,4]triazin-5-yl]pyridin-2-yl}-N′-[3-(trifluoromethyl)phenyl]urea]
- IC50 [1]: < 10 nM

Compound: Nc1ncnn2c(CN3CCOCC3)cc(-c3ccc(NC(=O)Nc4cccc(C(F)(F)F)c4F)nc3)c12 [Example 21, N-{5-[4-amino-7-(morpholin-4-ylmethyl)pyrrolo[2,1-f][1,2,4]triazin-5-yl]pyridin-2-yl}-N′-[2-fluoro-3-(trifluoromethyl)phenyl]urea]
- IC50 [1]: 10 to 100 nM

Compound: Nc1ncnn2c(CN3CCOCC3)cc(-c3ccc(NC(=O)Nc4cc(F)cc(C(F)(F)F)c4)nc3)c12 [Example 22, N-{5-[4-amino-7-(morpholin-4-ylmethyl)pyrrolo[2,1-f][1,2,4]triazin-5-yl]pyridin-2-yl}-N′-[3-fluoro-5-(trifluoromethyl)phenyl]urea]
- IC50 [1]: < 10 nM

Compound: Cc1cc(-c2cc(CN3CCOCC3)n3ncnc(N)c23)ccc1NC(=O)Nc1cc(C(F)(F)F)ccn1 [Example 26, N-{4-[4-amino-7-(morpholin-4-ylmethyl)pyrrolo[2,1-f][1,2,4]triazin-5-yl]-2-methylphenyl}-N′-[4-(trifluoromethyl)pyridin-2-yl]urea]
- IC50 [1]: < 10 nM

Compound: Cc1cc(-c2cc(CN3CCOCC3)n3ncnc(N)c23)ccc1NC(=O)Nc1ccc(F)c(C(F)(F)F)c1 [Example 27, N-{4-[4-amino-7-(morpholin-4-ylmethyl)pyrrolo[2,1-f][1,2,4]triazin-5-yl]-2-methylphenyl}-N′-[4-fluoro-3-(trifluoromethyl)phenyl]urea]
- IC50 [1]: < 10 nM

Compound: Cc1cc(-c2cc(CN3CCOCC3)n3ncnc(N)c23)ccc1NC(=O)Nc1cc(F)cc(C(F)(F)F)c1 [Example 28, N-{4-[4-amino-7-(morpholin-4-ylmethyl)pyrrolo[2,1-f][1,2,4]triazin-5-yl]-2-methylphenyl}-N′-[3-fluoro-5-(trifluoromethyl)phenyl]urea]
- IC50 [1]: < 10 nM

Compound: Cc1cc(NC(=O)Nc2cc(C(F)(F)F)ccc2F)ccc1-c1cc(CN2CCOCC2)n2ncnc(N)c12 [Example 29, N-{4-[4-amino-7-(morpholin-4-ylmethyl)pyrrolo[2,1-f][1,2,4]triazin-5-yl]-3-methylphenyl}-N′-[2-fluoro-5-(trifluoromethyl)phenyl]urea]
- IC50 [1]: < 10 nM

Compound: COc1cc(-c2cc(CN3CCOCC3)n3ncnc(N)c23)ccc1NC(=O)Nc1cc(C(C)(C)C)no1 [Example 30, N-{4-[4-amino-7-(morpholin-4-ylmethyl)pyrrolo[2,1-f][1,2,4]triazin-5-yl]-2-methoxyphenyl}-N′-(3-tert-butylisoxazol-5-yl)urea]
- IC50 [1]: 10 to 100 nM

Compound: COc1cc(-c2cc(CN3CCOCC3)n3ncnc(N)c23)ccc1NC(=O)Nc1cc(C(F)(F)F)ccn1 [Example 31, N-{4-[4-amino-7-(morpholin-4-ylmethyl)pyrrolo[2,1-f][1,2,4]triazin-5-yl]-2-methoxyphenyl}-N′-[4-(trifluoromethyl)pyridin-2-yl]urea]
- IC50 [1]: 10 to 100 nM

Compound: COc1cc(-c2cc(CN3CCOCC3)n3ncnc(N)c23)ccc1NC(=O)Nc1ccc(F)c(C(F)(F)F)c1 [Example 32, N-{4-[4-amino-7-(morpholin-4-ylmethyl)pyrrolo[2,1-f][1,2,4]triazin-5-yl]-2-methoxyphenyl}-N′-[4-fluoro-3-(trifluoromethyl)phenyl]urea]
- IC50 [1]: 10 to 100 nM

Compound: COc1cc(-c2cc(CN3CCOCC3)n3ncnc(N)c23)ccc1NC(=O)Nc1cccc(OC(F)(F)F)c1 [Example 33, N-{4-[4-amino-7-(morpholin-4-ylmethyl)pyrrolo[2,1-f][1,2,4]triazin-5-yl]-2-methoxyphenyl}-N′-[3-(trifluoromethoxy)phenyl]urea]
- IC50 [1]: 10 to 100 nM

Compound: COc1cc(-c2cc(CN3CCOCC3)n3ncnc(N)c23)ccc1NC(=O)Nc1cc(C(F)(F)F)ccc1Cl [Example 35, N-{4-[4-amino-7-(morpholin-4-ylmethyl)pyrrolo[2,1-f][1,2,4]triazin-5-yl]-2-methoxyphenyl}-N′-[2-chloro-5-(trifluoromethyl)phenyl]urea]
- IC50 [1]: 10 to 100 nM

Compound: COc1cc(-c2cc(CN3CCOCC3)n3ncnc(N)c23)ccc1NC(=O)Nc1cc(C(F)(F)F)ccc1F [Example 36, N-{4-[4-amino-7-(morpholin-4-ylmethyl)pyrrolo[2,1-f][1,2,4]triazin-5-yl]-2-methoxyphenyl}-N′-[2-fluoro-5-(trifluoromethyl)phenyl]urea]
- IC50 [1]: 10 to 100 nM

Compound: COc1cc(NC(=O)Nc2cc(C(F)(F)F)ccc2F)ccc1-c1cc(CN2CCOCC2)n2ncnc(N)c12 [Example 37, N-{4-[4-amino-7-(morpholin-4-ylmethyl)pyrrolo[2,1-f][1,2,4]-triazin-5-yl]-3-methoxyphenyl}-N′-[2-fluoro-5-(trifluoromethyl)phenyl]urea]
- IC50 [1]: 10 to 100 nM

Compound: COc1cc(NC(=O)Nc2cc(C(F)(F)F)ccn2)ccc1-c1cc(CN2CCOCC2)n2ncnc(N)c12 [Example 38, N-{4-[4-amino-7-(morpholin-4-ylmethyl)pyrrolo[2,1-f][1,2,4]triazin-5-yl]-3-methoxyphenyl}-N′-[4-(trifluoromethyl)pyridin-2-yl]urea]
- IC50 [1]: 10 to 100 nM

Compound: Nc1ncnn2c(CN3CCNC(=O)C3)cc(-c3ccc(NC(=O)Nc4cc(C(F)(F)F)ccc4F)cc3)c12 [Example 39, N-(4-{4-amino-7-[(3-oxopiperazin-1-yl)methyl]pyrrolo[2,1-f][1,2,4]triazin-5-yl}phenyl)-N′-[2-fluoro-5-(trifluoromethyl)phenyl]urea]
- IC50 [1]: < 10 nM

Compound: Nc1ncnn2c(CN3CCNC(=O)C3)cc(-c3ccc(NC(=O)Nc4cc(C(F)(F)F)ccc4F)c(F)c3)c12 [Example 40, N-(4-{4-amino-7-[(3-oxopiperazin-1-yl)methyl]pyrrolo[2,1-f][1,2,4]triazin-5-yl}-2-fluorophenyl)-N′-[2-fluoro-5-(trifluoromethyl)phenyl]urea]
- IC50 [1]: < 10 nM

Compound: Nc1ncnn2c(CN3CCNC(=O)C3)cc(-c3ccc(NC(=O)Nc4cc(C(F)(F)F)ccn4)cc3)c12 [Example 41, N-(4-{4-amino-7-[(3-oxopiperazin-1-yl)methyl]pyrrolo[2,1-f][1,2,4]triazin-5-yl}phenyl)-N′-[4-(trifluoromethyl)pyridin-2-yl]urea]
- IC50 [1]: < 10 nM
